Test results published in patent publication US20180250303A1, “TGF BETA RECEPTOR ANTAGONISTS” (BRISTOL-MYERS SQUIBB COMPANY, priority 2015, published 2018).
pIC50: −log10 of the molar value.

Assays:
[1] = molecular target: T1, HIS-TGFβR1 T204D (Homo sapiens, UniProt P36897, T204D); assay: HTRF probe displacement assay, TGFβR1 HIS T204D; format: binding; conditions: 1 nM HIS-TGFβR1 T204D, labeled probe at Kd, 1 hour at room temperature
T1 sequence (P36897 34-503 T204D): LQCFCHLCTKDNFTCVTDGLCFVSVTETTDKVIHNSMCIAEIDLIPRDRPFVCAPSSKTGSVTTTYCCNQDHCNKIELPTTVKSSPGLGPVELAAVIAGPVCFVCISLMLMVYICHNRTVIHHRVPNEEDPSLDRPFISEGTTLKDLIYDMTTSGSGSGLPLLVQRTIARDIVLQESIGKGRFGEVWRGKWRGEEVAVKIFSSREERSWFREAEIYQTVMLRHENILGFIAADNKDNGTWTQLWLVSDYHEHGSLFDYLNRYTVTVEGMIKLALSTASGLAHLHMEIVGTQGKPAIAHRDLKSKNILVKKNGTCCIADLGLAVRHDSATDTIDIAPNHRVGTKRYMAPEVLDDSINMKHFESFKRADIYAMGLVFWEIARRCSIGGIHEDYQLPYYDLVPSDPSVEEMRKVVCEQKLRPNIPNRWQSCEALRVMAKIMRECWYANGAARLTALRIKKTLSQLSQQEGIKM
Method: (§1) Compounds were dissolved at 10 mM in dimethylsulfoxide (DMSO) and evaluated at eleven concentrations. IC50 values were derived by non-linear regression analysis.

[2] = molecular target: HIS-TGFβR2 WT (Homo sapiens, UniProt P37173); assay: HTRF probe displacement assay, TGFβR2 HIS WT; format: binding; conditions: 1 nM HIS-TGFβR2 WT, labeled probe at Kd, 1 hour at room temperature
Method: as §1

Sequence of HIS-TGFβR2 WT (P37173 23-567): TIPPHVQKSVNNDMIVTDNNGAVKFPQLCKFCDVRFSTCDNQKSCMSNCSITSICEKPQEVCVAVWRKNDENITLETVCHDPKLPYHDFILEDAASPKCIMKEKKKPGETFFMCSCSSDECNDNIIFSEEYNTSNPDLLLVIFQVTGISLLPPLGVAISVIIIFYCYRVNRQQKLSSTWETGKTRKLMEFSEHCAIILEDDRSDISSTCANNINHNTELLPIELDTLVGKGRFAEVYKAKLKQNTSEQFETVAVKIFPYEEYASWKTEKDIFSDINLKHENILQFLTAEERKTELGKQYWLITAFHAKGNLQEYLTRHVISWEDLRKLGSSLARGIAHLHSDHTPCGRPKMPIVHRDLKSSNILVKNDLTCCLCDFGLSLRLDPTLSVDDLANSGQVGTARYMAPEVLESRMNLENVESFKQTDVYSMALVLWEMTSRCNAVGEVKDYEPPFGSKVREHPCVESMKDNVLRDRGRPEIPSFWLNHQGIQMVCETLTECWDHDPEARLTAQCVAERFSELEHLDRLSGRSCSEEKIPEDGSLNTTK

SMILES | pIC50 [1] | pIC50 [2]
Cc1nc2c(Nc3ccncc3F)nc(-c3cccc(C(F)(F)F)n3)nc2[nH]1 [Example 16, N-(3-fluoropyridin-4-yl)-8-methyl-2-(6-(trifluoromethyl)pyridin-2-yl)-9H-Purin-6-amine] | 8.28 | < 4.82
Fc1cnccc1Nc1nc(-c2cccc(C(F)(F)F)n2)nc2[nH]cnc12 [Example 3, N-(3-fluoropyridin-4-yl)-2-(6-(trifluoromethyl)pyridin-2-yl)-9H-Purin-6-amine] | 8.96 | < 4.82
CC(=O)Nc1cc(Nc2nc(-c3cccc(C(F)(F)F)n3)nc3[nH]c(C)nc23)c(F)cn1 [Example 15, N-(5-fluoro-4-((8-methyl-2-(6-(trifluoromethyl)pyridin-2-yl)-9H-Purin-6-yl)amino)pyridin-2-yl)acetamide] | 7.29 | < 4.82
COCCC(=O)Nc1cc(Nc2nc(-c3cccc(C(F)(F)F)n3)nc3[nH]cnc23)ccn1 [Example 22, 3-methoxy-N-(4-((2-(6-(trifluoromethyl)pyridin-2-yl)-9H-purin-6-yl)amino)pyridin-2-yl)propanamide] | 8.96 | < 4.82
COC(=O)Nc1cc(Nc2nc(-c3cccc(C(F)(F)F)n3)nc3[nH]cnc23)ccn1 [Example 19, Methyl (4-((2-(6-(trifluoromethyl)pyridin-2-yl)-9H-purin-6-yl)amino)pyridin-2-yl)carbamate] | 8.70 | < 4.82
COCC(=O)Nc1cc(Nc2nc(-c3cccc(C(F)(F)F)n3)nc3[nH]cnc23)ccn1 [Example 21, 2-methoxy-N-(4-((2-(6-(trifluoromethyl)pyridin-2-yl)-9H-purin-6-yl)amino)pyridin-2-yl)acetamide] | 9.35 | < 4.82
Fc1cnccc1Nc1nc(-c2cccc(C(F)F)n2)nc2[nH]cnc12 [Example 2, 2-(6-(difluoromethyl)pyridin-2-yl)-N-(3-fluoropyridin-4-yl)-9H-Purin-6-amine] | 9.39 | 5.51
CC(=O)Nc1nccc(Nc2nc(-c3cccc(C(F)(F)F)n3)nc3[nH]cnc23)c1F [Example 12, N-(3-fluoro-4-((2-(6-(trifluoromethyl)pyridin-2-yl)-9H-Purin-6-yl)amino)pyridin-2-yl)acetamide] | 8.05 | < 4.82
CC(=O)Nc1cc(Nc2nc(-c3cccc(C(F)(F)F)n3)nc3[nH]c(C)nc23)ccn1 [Example 14, N-(4-((8-methyl-2-(6-(trifluoromethyl)pyridin-2-yl)-9H-Purin-6-yl)amino)pyridin-2-yl)acetamide] | 8.80 | < 4.82
O=C(CCC(F)(F)F)Nc1cc(Nc2nc(-c3cccc(C(F)(F)F)n3)nc3[nH]cnc23)ccn1 [Example 23, 4,4,4-trifluoro-N-(4-((2-(6-(trifluoromethyl)pyridin-2-yl)-9H-purin-6-yl)amino)pyridin-2-yl)butanamide] | 9.32 | < 4.82
CC(=O)Nc1cc(Nc2nc(-c3cccc(C(F)(F)F)n3)nc3[nH]c(C4CC4)nc23)ccn1 [Example 17, N-(4-((8-cyclopropyl-2-(6-(trifluoromethyl)pyridin-2-yl)-9H-Purin-6-yl)amino)pyridin-2-yl)acetamide] | 8.80 | < 4.82

Compounds with a higher pIC50 [2], results first:

pIC50 [1] | pIC50 [2] | SMILES
9.44 | 5.55 | Cc1nc(-c2nc(Nc3ccncc3F)c3nc[nH]c3n2)ccc1F [Example 5, 2-(5-fluoro-6-methylpyridin-2-yl)-N-(3-fluoropyridin-4-yl)-9H-Purin-6-amine]
– | 5.89 | CC(=O)Nc1cc(Nc2nc(-c3cccc(C(F)(F)F)n3)nc3[nH]cnc23)ccn1 [Example 8, N-(4-((2-(6-(trifluoromethyl)pyridin-2-yl)-9H-Purin-6-yl)amino)pyridin-2-yl)acetamide]
9.14 | 6.28 | CC(=O)Nc1cc(Nc2nc(-c3cccc(C(F)F)n3)nc3[nH]cnc23)ccn1 [Example 7, N-(4-((2-(6-(difluoromethyl)pyridin-2-yl)-9H-Purin-6-yl)amino)pyridin-2-yl)acetamide]
9.25 | 6.33 | O=C(Nc1cc(Nc2nc(-c3cccc(C(F)(F)F)n3)nc3[nH]cnc23)ccn1)C1CC1 [Example 20, N-(4-((2-(6-(trifluoromethyl)pyridin-2-yl)-9H-purin-6-yl)amino)pyridin-2-yl)cyclopropanecarboxamide]
9.44 | 6.36 | CC(=O)Nc1cc(Nc2nc(-c3cccc(C)n3)nc3[nH]cnc23)ccn1 [Example 6, N-(4-((2-(6-methylpyridin-2-yl)-9H-Purin-6-yl)amino)pyridin-2-yl)acetamide]
9.47 | 6.54 | CC(=O)Nc1cc(Nc2nc(-c3ccc(F)c(C)n3)nc3[nH]cnc23)ccn1 [Example 24, N-(4-((2-(5-fluoro-6-methylpyridin-2-yl)-9H-purin-6-yl)amino)pyridin-2-yl)acetamide]
9.05 | 6.85 | CC(=O)Nc1cc(Nc2nc(-c3ccccn3)nc3[nH]cnc23)ccn1 [Example 9, N-(4-((2-(pyridin-2-yl)-9H-Purin-6-yl)amino)pyridin-2-yl)acetamide]
